Source: patent publication US5525594A, “Treatment of hyperandrogenic disorders” (Roussel Uclaf, priority 1993, dated 1996)

Target: T1, 5α-reductase (Homo sapiens, UniProt P31213)
T1 construct: Homogenates of human prostates obtained by radical prostatectomies; from tissue; host or cells: human prostate from radical prostatectomy for benign hyperplasia; resuspended 140,000 g pellet of the homogenate
T1 sequence (P31213 1-254): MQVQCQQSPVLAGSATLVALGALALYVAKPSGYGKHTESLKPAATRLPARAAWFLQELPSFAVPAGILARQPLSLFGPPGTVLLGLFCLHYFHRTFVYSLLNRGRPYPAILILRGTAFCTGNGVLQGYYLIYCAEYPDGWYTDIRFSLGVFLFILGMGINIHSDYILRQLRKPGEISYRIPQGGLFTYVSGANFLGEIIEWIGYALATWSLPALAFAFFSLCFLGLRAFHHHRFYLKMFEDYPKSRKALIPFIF
Assay: 5α-reductase activity test in vitro, human prostate homogenate, testosterone substrate, HPLC measurement of 5α-reduced metabolites
Format: biochemical
Details: homogenates of human prostates (BHP), pH 5.5, 37° C., 30 minutes, read-out: IC50 for inhibition of the 5α-reductase activity of the control
Experimental: The test for measuring the 5α-reductase activity was carried cut in vitro by incubating the enzyme and its substrate (testosterone) and by measuring by HPLC chromatography the amount of 5α-reduced metabolites formed (dihydrotestosterone (DHT) and 5α-androstane-diol). Homogenates of human prostates obtained by radical prostatectomies due to benign hyperplasia of the prostate (BHP) were used.
The prostate was collected straight after leaving the operating theater suite and packed in aluminum paper placed in a container filled with dry ice. At the laboratory, if the homogenate was not prepared immediately, the prostate could be stored at -80° C. […]
b) Mixture of "unlabelled" testosterone and "tritiated testosterone" with an isotopic dilution of 100: To obtain a 1 mM solution of testosterone, 2.88 mg of "unlabelled" testosterone were weighed out which was dissolved in 10 ml of ethanol. […] Substrate (S) was ready. […]
The amounts of metabolites produced during the incubation were measured by separating the compounds formed by reversed-phase high performance liquid chromatography (HPLC). […] The extract collected after extraction was injected automatically onto the HPLC system and by the linear radioactivity measurement system (Berthold), only the radioactive metabolites, formed from the testosterone labelled with the substrate, were evaluated. […]

oenotheine B
IC50: 22 µM
